Laboratory results reported in patent US20070280915A1, “Combination Therapies Employing A Composition Comprising A Hmg Coa Reductase Inhibitor And A Vitamin B6 Related Compound” (priority 2003, published 2007).
Where two headings read alike, the source gives them in different places.

Legend:
CYP2C19 = CYP2C19 (Homo sapiens, UniProt P33261); assay: CYP2C19 inhibition assay (substrate CEC); conditions: read-out: Pyridoxal 5′-phosphate IC50, 0.0169 to […] tested, listed as pyridoxal 5′-phosphate
Excerpt: (§1) The CYP inhibition assays used microsomes (Supersomes®, Gentest Corp., Woburn, Mass.) prepared from insect cells, each expressing an individual CYP subtype (CYP1A2, CYP2A6, CYP2B6, CYP2C8, CYP2C9, CYP2C19, CYP2D6, CYP2E1 or CYP3A4) expressed from the corresponding human CYP cDNA using a baculovirus expression vector. The microsomes also incorporated supplemental cDNA-expressed human reductase and/or cytochrome b5, as these enzymes stimulate the activity of the CYPs, allowing for a reduction in the amount of enzyme required per reaction (Gentest Corp.). The assays monitored, via fluorescence detection, the formation of a fluorescent metabolite following incubation of the microsomes with a specific CYP substrate. […]
(§2) Eight inhibitor and test compound concentrations were tested using 3-fold serial dilutions. […] The amount of metabolic product formed was quantified by fluorescence detection in a fluorescence plate reader utilizing excitation and emission filters that had been optimized for the detection of each metabolite.
(§3) Data Analysis—The mean of the duplicate fluorescent signals in the presence and absence (vehicle control) of each compound was calculated and corrected for the background noise. […]

CYP2C9 = target: T1, CYP2C9 (Homo sapiens, UniProt P11712); assay: CYP2C9 inhibition assay (substrate MFC); assay type: in vitro ADME; conditions: 0.0169 to […] tested, na = concentration-dependent inhibition not observed
T1 construct: purchased Gentest Corp; host or cells: insect cells (baculovirus)
Procedure: […]. […] All determinations were performed in duplicate.

CYP2E1 = target: T2, CYP2E1 (Homo sapiens, UniProt P05181); assay: CYP2E1 inhibition assay (substrate MFC); assay type: in vitro ADME; conditions: 0.0169 to […] tested, na = concentration-dependent inhibition not observed
T2 construct: purchased Gentest Corp; host or cells: insect cells (baculovirus)
Procedure: All determinations were performed in duplicate.

CYP2C8 = target: T3, CYP2C8 (Homo sapiens, UniProt P10632); assay: CYP2C8 inhibition assay (substrate DBF); conditions: 0.0169 to […] tested, na = concentration-dependent inhibition not observed
T3 sequence (P10632 1-490): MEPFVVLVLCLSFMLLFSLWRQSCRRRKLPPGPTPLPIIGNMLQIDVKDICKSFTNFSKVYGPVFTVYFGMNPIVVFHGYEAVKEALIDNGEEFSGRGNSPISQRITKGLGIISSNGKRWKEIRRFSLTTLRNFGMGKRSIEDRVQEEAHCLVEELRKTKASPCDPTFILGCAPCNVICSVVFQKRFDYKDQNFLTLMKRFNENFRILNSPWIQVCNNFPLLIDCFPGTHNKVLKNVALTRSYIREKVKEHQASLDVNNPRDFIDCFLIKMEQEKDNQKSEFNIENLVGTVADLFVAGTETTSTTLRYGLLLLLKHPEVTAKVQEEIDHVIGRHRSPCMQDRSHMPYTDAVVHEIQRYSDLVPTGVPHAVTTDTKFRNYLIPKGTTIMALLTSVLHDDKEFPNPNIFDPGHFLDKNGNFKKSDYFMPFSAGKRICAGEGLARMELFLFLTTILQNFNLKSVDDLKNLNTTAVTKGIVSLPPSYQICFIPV
Excerpt: as §1, §2, §3

CYP3A4 = CYP3A4 (Homo sapiens, UniProt P08684); assay: CYP3A4 inhibition assay (substrates BFC and BQ)
Excerpt: as §1, §2, §3

CYP2D6 = CYP2D6 (Homo sapiens, UniProt P10635); assay: CYP2D6 inhibition assay (substrate AMMC); conditions: 0.0169 to […] tested, na = concentration-dependent inhibition not observed
Excerpt: as §1, §2, §3

CYP1A2 = CYP1A2 (Homo sapiens, UniProt P05177); assay: CYP1A2 inhibition assay (Supersomes, fluorescent metabolite, substrate CEC); conditions: 0.0169 to […] tested, na = concentration-dependent inhibition not observed
Excerpt: as §1, §2, §3

CYP3A4, sequence (P08684 whole entry): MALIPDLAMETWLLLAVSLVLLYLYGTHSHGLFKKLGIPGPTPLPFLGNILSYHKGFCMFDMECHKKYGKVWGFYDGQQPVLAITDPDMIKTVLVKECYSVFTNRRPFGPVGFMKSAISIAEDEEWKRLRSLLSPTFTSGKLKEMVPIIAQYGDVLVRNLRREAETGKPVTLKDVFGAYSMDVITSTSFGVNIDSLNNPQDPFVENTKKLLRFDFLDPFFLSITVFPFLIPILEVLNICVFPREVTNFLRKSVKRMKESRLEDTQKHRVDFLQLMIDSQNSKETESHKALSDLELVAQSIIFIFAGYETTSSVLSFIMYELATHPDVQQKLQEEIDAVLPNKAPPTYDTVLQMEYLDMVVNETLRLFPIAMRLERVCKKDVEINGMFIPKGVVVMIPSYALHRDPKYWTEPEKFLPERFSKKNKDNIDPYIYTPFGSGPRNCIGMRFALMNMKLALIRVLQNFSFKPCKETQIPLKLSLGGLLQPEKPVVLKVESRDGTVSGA
CYP2D6, sequence (P10635 whole entry): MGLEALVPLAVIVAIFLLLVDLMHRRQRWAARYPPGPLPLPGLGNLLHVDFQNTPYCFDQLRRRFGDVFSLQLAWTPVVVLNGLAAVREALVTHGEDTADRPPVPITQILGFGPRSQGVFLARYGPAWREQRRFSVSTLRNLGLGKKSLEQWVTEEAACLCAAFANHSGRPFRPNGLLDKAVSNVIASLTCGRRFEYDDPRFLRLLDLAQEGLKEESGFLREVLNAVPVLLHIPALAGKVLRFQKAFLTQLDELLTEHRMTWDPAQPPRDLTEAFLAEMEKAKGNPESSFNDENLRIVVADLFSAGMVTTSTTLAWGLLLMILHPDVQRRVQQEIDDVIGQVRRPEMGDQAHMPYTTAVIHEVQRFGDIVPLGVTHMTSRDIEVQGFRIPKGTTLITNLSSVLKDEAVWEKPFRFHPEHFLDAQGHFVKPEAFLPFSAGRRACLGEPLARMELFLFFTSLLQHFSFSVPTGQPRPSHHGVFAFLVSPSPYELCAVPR
T2 sequence (P05181 whole entry): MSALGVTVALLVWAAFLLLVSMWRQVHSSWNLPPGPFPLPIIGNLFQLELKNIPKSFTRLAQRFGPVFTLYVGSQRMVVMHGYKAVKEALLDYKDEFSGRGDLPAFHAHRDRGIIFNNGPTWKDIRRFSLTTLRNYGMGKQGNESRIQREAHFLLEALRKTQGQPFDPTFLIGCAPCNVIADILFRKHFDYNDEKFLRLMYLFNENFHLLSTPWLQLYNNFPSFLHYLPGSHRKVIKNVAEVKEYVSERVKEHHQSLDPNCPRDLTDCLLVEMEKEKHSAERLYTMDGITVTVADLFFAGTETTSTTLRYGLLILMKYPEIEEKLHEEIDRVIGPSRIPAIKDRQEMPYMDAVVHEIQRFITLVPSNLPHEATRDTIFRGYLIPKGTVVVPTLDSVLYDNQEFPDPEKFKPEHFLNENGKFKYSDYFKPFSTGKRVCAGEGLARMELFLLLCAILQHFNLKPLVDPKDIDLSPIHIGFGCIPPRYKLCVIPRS
CYP2C19, sequence (P33261 whole entry): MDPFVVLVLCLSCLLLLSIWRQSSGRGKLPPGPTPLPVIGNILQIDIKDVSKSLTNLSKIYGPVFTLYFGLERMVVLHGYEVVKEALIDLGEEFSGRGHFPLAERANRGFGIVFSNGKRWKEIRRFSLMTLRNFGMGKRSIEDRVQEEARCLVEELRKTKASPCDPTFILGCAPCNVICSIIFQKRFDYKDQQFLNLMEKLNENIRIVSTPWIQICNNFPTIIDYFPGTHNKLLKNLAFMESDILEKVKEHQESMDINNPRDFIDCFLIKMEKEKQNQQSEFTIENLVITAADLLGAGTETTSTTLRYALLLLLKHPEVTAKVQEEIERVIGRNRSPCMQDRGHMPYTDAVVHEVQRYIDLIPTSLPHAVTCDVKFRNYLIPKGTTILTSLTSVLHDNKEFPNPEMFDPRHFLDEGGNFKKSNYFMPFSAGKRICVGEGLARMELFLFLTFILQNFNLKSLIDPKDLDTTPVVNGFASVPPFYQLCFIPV
T1 sequence (P11712 whole entry): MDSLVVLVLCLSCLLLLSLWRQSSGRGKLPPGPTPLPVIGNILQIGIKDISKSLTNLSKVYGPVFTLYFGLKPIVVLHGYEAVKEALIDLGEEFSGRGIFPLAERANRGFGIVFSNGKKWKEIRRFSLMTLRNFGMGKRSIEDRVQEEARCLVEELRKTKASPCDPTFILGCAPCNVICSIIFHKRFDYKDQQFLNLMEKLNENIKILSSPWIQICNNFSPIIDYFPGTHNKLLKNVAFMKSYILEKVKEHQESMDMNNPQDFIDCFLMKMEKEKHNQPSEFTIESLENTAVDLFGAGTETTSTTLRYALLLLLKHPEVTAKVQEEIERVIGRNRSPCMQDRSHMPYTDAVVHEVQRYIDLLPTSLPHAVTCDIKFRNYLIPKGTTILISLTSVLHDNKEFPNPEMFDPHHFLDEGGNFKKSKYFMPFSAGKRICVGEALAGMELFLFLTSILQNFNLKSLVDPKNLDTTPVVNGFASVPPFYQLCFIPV
CYP1A2, sequence (P05177 whole entry): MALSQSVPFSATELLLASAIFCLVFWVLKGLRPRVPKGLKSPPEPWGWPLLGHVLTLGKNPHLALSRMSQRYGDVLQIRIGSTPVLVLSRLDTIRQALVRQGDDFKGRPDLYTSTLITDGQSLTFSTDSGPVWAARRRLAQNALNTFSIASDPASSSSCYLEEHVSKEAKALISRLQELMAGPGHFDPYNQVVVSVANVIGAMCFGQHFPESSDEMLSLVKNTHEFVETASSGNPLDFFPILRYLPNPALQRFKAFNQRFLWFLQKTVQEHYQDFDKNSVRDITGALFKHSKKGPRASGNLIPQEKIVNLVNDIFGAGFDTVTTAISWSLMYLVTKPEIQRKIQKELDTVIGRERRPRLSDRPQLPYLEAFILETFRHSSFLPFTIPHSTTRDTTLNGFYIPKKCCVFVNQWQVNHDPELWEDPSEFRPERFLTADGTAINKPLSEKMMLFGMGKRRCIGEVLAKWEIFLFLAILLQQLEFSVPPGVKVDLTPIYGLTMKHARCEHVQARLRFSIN

## Cc1ncc(COP(=O)(O)O)c(C=O)c1O [P5P, pyridoxal-5-phosphate]
CYP2C19
  IC50: ~33 µM
CYP2C9
  Pyridoxal 5′-phosphate IC50: did not inhibit
CYP2E1
  Pyridoxal 5′-phosphate IC50: did not inhibit
CYP2C8
  Pyridoxal 5′-phosphate IC50: did not inhibit
CYP3A4; read-out: Pyridoxal 5′-phosphate IC50, CYP3A4, substrate BQ, 0.0169 to […] tested
  IC50: > 37 µM
CYP3A4; read-out: Pyridoxal 5′-phosphate IC50 for CYP3A4, CYP3A4, substrate not given
  IC50: ≥ 37 µM
CYP2D6
  Pyridoxal 5′-phosphate IC50: did not inhibit
CYP1A2
  Pyridoxal 5′-phosphate IC50: did not inhibit
